According to the NIST ThermoML archive (doi:10.1016/j.jct.2013.08.016):
Numbers after ± are expanded uncertainties.

Legend:
[1] = 101.3 kPa, Liquid, Capillary tube (Ostwald / Ubbelohde) method
[2] = refractive index (Na D-line) (dimensionless); details: 101.33 kPa, Liquid, Standard Abbe refractometry
[3] = mn = molality of the nth substance listed, in mol/kg; details: 101.3 kPa, Liquid, m2 = 0; for viscosity: Capillary tube (Ostwald / Ubbelohde) method; for mass density: Pycnometric method; for speed of sound: Single path-length method
[4] = refractive index (Na D-line) (dimensionless); mn = molality of the nth substance listed, in mol/kg; details: 101.3 kPa, Liquid, Standard Abbe refractometry, m2 = 0

Row | viscosity ([1]; 278.15 K) [mPa·s] | viscosity ([1]; 288.15 K) [mPa·s] | viscosity ([1]; 298.15 K) [mPa·s] | refractive index ([2]; 278.15 K) | refractive index ([2]; 288.15 K) | refractive index ([2]; 298.15 K) | viscosity ([3]; 278.15 K) [mPa·s] | mass density ([3]; 278.15 K) [kg/m3] | speed of sound ([3]; 278.15 K) [m/s] | viscosity ([3]; 288.15 K) [mPa·s] | viscosity ([3]; 298.15 K) [mPa·s] | refractive index ([4]; 278.15 K) | refractive index ([4]; 288.15 K) | refractive index ([4]; 298.15 K) | SMILES
1 | 1.519 ± 0.032 | 1.138 ± 0.025 | 0.8903 ± 0.019 | 1.3339 ± 0.0005 | 1.3334 ± 0.0005 | 1.3325 ± 0.0005 |  |  |  |  |  |  |  |  | O [water]
2 |  |  |  |  |  |  | 1.519 ± 0.032 | 999.96 ± 0.37 | 1426.2 ± 2.2 | 1.138 ± 0.025 | 0.8903 ± 0.019 | 1.3339 ± 0.0005 | 1.3334 ± 0.0005 | 1.3325 ± 0.0005 | O [water] + O=C1O[C@H]([C@@H](O)CO)C(O)=C1O
3 |  |  |  |  |  |  | 1.519 ± 0.032 | 999.96 ± 0.38 | 1426.2 ± 2.2 | 1.138 ± 0.025 | 0.8903 ± 0.019 | 1.3339 ± 0.0005 | 1.3334 ± 0.0005 | 1.3325 ± 0.0005 | O [water] + O=C1O[C@H]([C@@H](O)CO)C([O-])=C1O.[Na+]
